Legend:
[1] = biological target: Tyrosine-protein kinase ABL1 (Homo sapiens, UniProt P00519)
Description: Inhibition of human ABL by radiometric assay

[2] = biological target: Proto-oncogene tyrosine-protein kinase Src (Homo sapiens, UniProt P12931)
Proto-oncogene tyrosine-protein kinase Src, sequence (P12931 2-536 limits assumed): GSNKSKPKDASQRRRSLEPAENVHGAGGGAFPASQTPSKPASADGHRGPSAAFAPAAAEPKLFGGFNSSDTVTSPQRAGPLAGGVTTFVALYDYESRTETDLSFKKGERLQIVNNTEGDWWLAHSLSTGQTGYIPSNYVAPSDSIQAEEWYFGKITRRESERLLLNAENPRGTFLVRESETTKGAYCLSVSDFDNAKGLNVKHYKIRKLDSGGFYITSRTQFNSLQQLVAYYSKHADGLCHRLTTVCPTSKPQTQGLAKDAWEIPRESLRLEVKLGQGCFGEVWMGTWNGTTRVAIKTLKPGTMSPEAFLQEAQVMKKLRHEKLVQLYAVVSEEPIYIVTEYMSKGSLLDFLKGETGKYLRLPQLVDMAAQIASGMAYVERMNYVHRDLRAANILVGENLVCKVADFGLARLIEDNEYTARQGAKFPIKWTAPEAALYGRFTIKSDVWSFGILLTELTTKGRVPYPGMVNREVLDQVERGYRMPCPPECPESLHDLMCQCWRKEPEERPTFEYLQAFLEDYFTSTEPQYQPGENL
Description: Inhibition of human SRC by radiometric assay

Tyrosine-protein kinase ABL1, sequence (P00519 whole entry): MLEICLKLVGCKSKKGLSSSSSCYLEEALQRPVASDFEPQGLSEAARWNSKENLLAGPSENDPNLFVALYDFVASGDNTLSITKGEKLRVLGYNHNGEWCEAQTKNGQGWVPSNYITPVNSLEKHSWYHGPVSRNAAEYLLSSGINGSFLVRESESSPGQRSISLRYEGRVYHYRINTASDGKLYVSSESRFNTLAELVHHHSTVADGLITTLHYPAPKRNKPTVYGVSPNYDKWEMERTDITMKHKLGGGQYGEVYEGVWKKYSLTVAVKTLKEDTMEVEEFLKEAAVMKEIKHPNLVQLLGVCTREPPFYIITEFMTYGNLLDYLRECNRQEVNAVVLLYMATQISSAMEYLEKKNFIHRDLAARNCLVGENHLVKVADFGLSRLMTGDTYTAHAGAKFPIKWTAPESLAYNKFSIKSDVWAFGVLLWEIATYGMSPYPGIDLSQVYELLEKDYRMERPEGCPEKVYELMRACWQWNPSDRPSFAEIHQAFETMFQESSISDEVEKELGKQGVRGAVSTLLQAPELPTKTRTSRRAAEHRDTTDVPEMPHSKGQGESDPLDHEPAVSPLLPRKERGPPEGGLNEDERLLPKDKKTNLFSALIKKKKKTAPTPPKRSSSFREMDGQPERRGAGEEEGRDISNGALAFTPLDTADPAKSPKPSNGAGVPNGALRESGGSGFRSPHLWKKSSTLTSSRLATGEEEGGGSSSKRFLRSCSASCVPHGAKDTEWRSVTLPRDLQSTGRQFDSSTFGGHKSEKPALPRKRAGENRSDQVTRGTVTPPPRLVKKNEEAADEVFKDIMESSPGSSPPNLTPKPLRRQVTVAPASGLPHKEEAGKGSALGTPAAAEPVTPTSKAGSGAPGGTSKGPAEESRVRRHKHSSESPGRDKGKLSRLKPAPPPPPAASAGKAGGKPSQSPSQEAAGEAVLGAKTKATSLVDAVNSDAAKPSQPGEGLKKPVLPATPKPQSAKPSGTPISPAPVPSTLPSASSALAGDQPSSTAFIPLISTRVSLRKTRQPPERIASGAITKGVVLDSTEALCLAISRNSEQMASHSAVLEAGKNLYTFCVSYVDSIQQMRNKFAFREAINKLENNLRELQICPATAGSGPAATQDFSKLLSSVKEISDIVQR

Ki [1] [µM]	Ki [2] [µM]	SMILES
> 10	> 10	Nc1ncnc2c1cnn2CC1CCNCC1
> 15	> 20	COc1ccc2cc(-c3nn(CC4CCNCC4)c4ncnc(N)c34)ccc2c1
> 15	> 20	Nc1ncnc2c1c(-c1cnc3ccccc3c1)nn2CC1CCNCC1
	0.77	COc1ccc2cc(-c3nn(C(C)C)c4ncnc(N)c34)ccc2c1

The remaining lines, values behind:

SMILES	Ki [1] [µM]	Ki [2] [µM]
Nc1nc2ccc(C(=O)c3ccccc3)cc2n1CC1CCNCC1	> 10	> 10
Nc1nc2ccc(C(=O)c3ccccc3)cc2[nH]1	10	> 10
COC(=O)Nc1nc2ccc(C(=O)c3ccccc3)cc2[nH]1 [MEBENDAZOLE]	4.6	
CCOc1ccc2cc(-c3nn(CC4CCNCC4)c4ncnc(N)c34)ccc2c1	> 15	> 20
CC(C)n1nc(-c2cc3c(Cl)cccc3[nH]2)c2c(N)ncnc21		1.24
